From US9273057B2 (Bristol-Myers Squibb Company, priority 2012, dated 2016) come the findings set out here.

Sequence of CK2A1 (CK2α/β) (P68400 whole entry, species assumed): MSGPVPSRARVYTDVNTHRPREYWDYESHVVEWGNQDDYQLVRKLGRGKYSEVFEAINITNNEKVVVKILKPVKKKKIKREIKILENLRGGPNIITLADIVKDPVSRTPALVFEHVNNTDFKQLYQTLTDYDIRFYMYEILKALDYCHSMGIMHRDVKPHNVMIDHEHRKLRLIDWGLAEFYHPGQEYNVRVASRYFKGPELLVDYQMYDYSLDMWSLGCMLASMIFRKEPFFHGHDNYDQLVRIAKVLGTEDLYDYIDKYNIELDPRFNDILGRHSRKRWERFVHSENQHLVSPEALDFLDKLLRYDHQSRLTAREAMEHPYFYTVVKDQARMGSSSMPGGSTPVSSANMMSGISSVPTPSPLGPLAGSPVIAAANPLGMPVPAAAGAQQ
Sequence of CK2A1 (CK2α/β) (P67870 whole entry partner, species assumed): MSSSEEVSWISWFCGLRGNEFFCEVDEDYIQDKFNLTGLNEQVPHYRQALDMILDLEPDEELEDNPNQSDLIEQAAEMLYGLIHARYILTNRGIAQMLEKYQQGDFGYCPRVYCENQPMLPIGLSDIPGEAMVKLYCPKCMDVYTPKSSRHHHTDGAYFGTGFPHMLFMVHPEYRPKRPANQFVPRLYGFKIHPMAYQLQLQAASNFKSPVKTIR

The assay concerns the target CK2A1 (CK2α/β) (Homo sapiens, UniProt P68400). The assay is described as follows: CK2 kinase assay, CK2A1 (CK2α/β). It counts as biochemical. The settings on record: Table A; read-out: CK2A1 (CK2α/β) (IC50).
Take `N#Cc1cc(Nc2nc(NC3CC3)c3ncc(C#N)n3n2)c(Cl)c(C2CCN(C(=O)CC(F)(F)F)CC2)c1` [Example 237, 2-((2-chloro-5-cyano-3-(1-(3,3,3-trifIuoropropanoyl)-4-piperidinyl)phenyl)amino)-4-(cyclopropylamino)imidazo[2,1-f][1,2,4]triazine-7-carbonitrile]: the IC50 turned out to be 0.41 nM.

`CC(C)(N)C(=O)N1CCC(c2cc(C#N)cc(Nc3nc(NC4CC4)c4ncc(C#N)n4n3)c2Cl)CC1` [Example 239, 2-((2-chloro-5-cyano-3-(1-(2-methylalanyl)-4-piperidinyl)phenyl)amino)-4-(cyclopropylamino)imidazo[2,1-f][1,2,4]triazine-7-carbonitrile]: the IC50 came to 0.49 nM. Turning to `C[C@H](N)C(=O)N1CCC(c2cc(C#N)cc(Nc3nc(NC4CC4)c4ncc(C#N)n4n3)c2Cl)CC1` [Example 240, 2-((3-(1-L-alanyl-4-piperidinyl)-2-chloro-5-cyanophenyl)amino)-4-(cyclopropylamino)imidazo[2,1-f][1,2,4]triazine-7-carbonitrile], the IC50 turned out to be 0.47 nM. Regarding `C[C@@H](N)C(=O)N1CCC(c2cc(C#N)cc(Nc3nc(NC4CC4)c4ncc(C#N)n4n3)c2Cl)CC1` [Example 241, 2-((3-(1-D-alanyl-4-piperidinyl)-2-chloro-5-cyanophenyl)amino)-4-(cyclopropylamino)imidazo[2,1-f][1,2,4]triazine-7-carbonitrile], the IC50 is 0.59 nM. For `N#Cc1cnc2c(NC3CC3)nc(Nc3cc(C(F)F)cc(N4CCN(C5COC5)CC4)c3Cl)nn12` [Example 242, 2-((2-Chloro-5-(difluoromethyl)-3-(4-(oxetan-3-yl)piperazin-1-yl)phenyl)amino)-4-(cyclopropylamino)imidazo[2,1-f][1,2,4]triazine-7-carbonitrile], the IC50 was determined as 1.3 nM.

As for `COC(=O)N[C@@H]1CCN(c2cc(C(F)F)cc(Nc3nc(NC4CC4)c4ncc(C#N)n4n3)c2Cl)C[C@H]1O` [Example 243, methyl (3R,4R)-1-(2-chloro-3-(7-cyano-4-(cyclopropylamino)imidazo[1,2-f][1,2,4]triazin-2-ylamino)-5-(difluoromethyl)phenyl)-3-hydroxypiperidin-4-ylcarbamate], the IC50 amounted to 2.08 nM.

As to `CC1(N2CCOCC2)CCN(c2cc(C(F)F)cc(Nc3nc(NC4CC4)c4ncc(C#N)n4n3)c2Cl)CC1` [Example 244, 2-((2-chloro-5-(difluoromethyl)-3-(4-methyl-4-(4-morpholinyl)-1-piperidinyl)phenyl)amino)-4-(cyclopropylamino)imidazo[2,1-f][1,2,4]triazine-7-carbonitrile], the IC50 is 0.97 nM. The value for `CC1(N)CCN(c2cc(C(F)F)cc(Nc3nc(NC4CC4)c4ncc(C#N)n4n3)c2Cl)CC1` [Example 245, 2-((3-(4-amino-4-methyl-1-piperidinyl)-2-chloro-5-(difluoromethyl)phenyl)amino)-4-(cyclopropylamino)imidazo[2,1-f][1,2,4]triazine-7-carbonitrile] was 0.51 nM; that for `N#Cc1cnc2c(NC3CC3)nc(Nc3cc(C(F)F)cc(N4CCNCC4)c3Cl)nn12` [Example 246, 2-((2-chloro-5-(difluoromethyl)-3-(1-piperazinyl)phenyl)amino)-4-(cyclopropylamino)imidazo[2,1-f][1,2,4]triazine-7-carbonitrile] was 0.96 nM. In the case of `N#Cc1cnc2c(NC3CC3)nc(Nc3cc(C(F)F)cc(N4CCN(C5CCOCC5)CC4)c3Cl)nn12` [Example 247, 2-((2-chloro-5-(difluoromethyl)-3-(4-(tetrahydro-2H-pyran-4-yl)-1-piperazinyl)phenyl)amino)-4-(cyclopropylamino)imidazo[2,1-f][1,2,4]triazine-7-carbonitrile], the IC50 came out at 1.74 nM. For `N#Cc1cnc2c(NC3CC3)nc(Nc3cc(C(F)F)cc(N4CCN(CC(F)F)CC4)c3Cl)nn12` [Example 248, 2-((2-chloro-3-(4-(2,2-difluoroethyl)-1-piperazinyl)-5-(difluoromethyl)phenyl)amino)-4-(cyclopropylamino)imidazo[2,1-f][1,2,4]triazine-7-carbonitrile] the value was 3.27 nM; for `N#Cc1cnc2c(NC3CC3)nc(Nc3cc(C(F)F)cc(NCC(O)CO)c3Cl)nn12` (stereo not shown) [Example 254, 2-((2-chloro-5-(difluoromethyl)-3-((2,3-dihydroxypropyl)amino)phenyl)amino)-4-(cyclopropylamino)imidazo[2,1-f][1,2,4]triazine-7-carbonitrile], 0.68 nM; for `N#Cc1cnc2c(NC3CC3)nc(Nc3cc(C(F)F)cc(N4CCC(O)CC4)c3Cl)nn12` [Example 255, 2-((2-chloro-5-(difluoromethyl)-3-(4-hydroxy-1-piperidinyl)phenyl)amino)-4-(cyclopropylamino)imidazo[2,1-f][1,2,4]triazine-7-carbonitrile], 0.53 nM.

In the case of `N#Cc1cnc2c(NC3CC3)nc(Nc3cc(C(F)F)cc(N4CCC(NC5COC5)CC4)c3Cl)nn12` [Example 256, 2-((2-chloro-5-(difluoromethyl)-3-(4-(3-oxetanylamino)-1-piperidinyl)phenyl)amino)-4-(cyclopropylamino)imidazo[2,1-f][1,2,4]triazine-7-carbonitrile], the IC50 worked out at 0.75 nM. Take `CC1(O)CN(C2CCN(c3cc(C(F)F)cc(Nc4nc(NC5CC5)c5ncc(C#N)n5n4)c3Cl)CC2)C1` [Example 257, 2-((2-chloro-5-(difluoromethyl)-3-(4-(3-hydroxy-3-methyl-1-azetidinyl)-1-piperidinyl)phenyl)amino)-4-(cyclopropylamino)imidazo[2,1-f][1,2,4]triazine-7-carbonitrile]: the IC50 turned out to be 0.97 nM.

Take `N#Cc1cnc2c(NC3CC3)nc(Nc3cc(C(F)F)cc(N4CCC(N5CC(F)C5)CC4)c3Cl)nn12` [Example 258, 2-((2-chloro-5-(difluoromethyl)-3-(4-(3-fluoro-1-azetidinyl)-1-piperidinyl)phenyl)amino)-4-(cyclopropylamino)imidazo[2,1-f][1,2,4]triazine-7-carbonitrile]: the IC50 was 1.93 nM. For `CC(C)(O)C1CCN(C2CN(c3cc(C(F)F)cc(Nc4nc(NC5CC5)c5ncc(C#N)n5n4)c3Cl)C2)CC1` [Example 259, 2-((2-chloro-5-(difluoromethyl)-3-(3-(4-(1-hydroxy-1-methylethyl)-1-piperidinyl)-1-azetidinyl)phenyl)amino)-4-(cyclopropylamino)imidazo[2,1-f][1,2,4]triazine-7-carbonitrile] the value was 1.29 nM.

Consider `COC1CCN(C2CN(c3cc(C(F)F)cc(Nc4nc(NC5CC5)c5ncc(C#N)n5n4)c3Cl)C2)CC1` [Example 260, 2-((2-chloro-5-(difluoromethyl)-3-(3-(4-methoxy-1-piperidinyl)-1-azetidinyl)phenyl)amino)-4-(cyclopropylamino)imidazo[2,1-f][1,2,4]triazine-7-carbonitrile], for which the IC50 is 2.12 nM. For `CC1(CN2CCN(c3cc(C(F)F)cc(Nc4nc(NC5CC5)c5ncc(C#N)n5n4)c3Cl)CC2)COC1` [Example 264, 2-((2-chloro-5-(difluoromethyl)-3-(4-((3-methyl-3-oxetanyl)methyl)-1-piperazinyl)phenyl)amino)-4-(cyclopropylamino)imidazo[2,1-f][1,2,4]triazine-7-carbonitrile] the value was 2.97 nM.
